Measurements from the NIST ThermoML archive (doi:10.1021/je900437b).
Numbers after ± are expanded uncertainties.

Columns and labels:
[1] = 101 kPa, Liquid; for speed of sound: Sing-around technique in a fixed-path interferometer; for mass density: Vibrating tube method
[2] = xn = mol fraction of the nth substance listed; details: 101 kPa, Liquid, x1 = 1; for speed of sound: Sing-around technique in a fixed-path interferometer; for mass density: Vibrating tube method

Row | Compound | speed of sound ([1]; 293.15 K) [m/s] | mass density ([1]; 293.15 K) [kg/m3] | speed of sound ([1]; 298.15 K) [m/s] | mass density ([1]; 298.15 K) [kg/m3] | speed of sound ([1]; 303.15 K) [m/s] | mass density ([1]; 303.15 K) [kg/m3] | speed of sound ([1]; 308.15 K) [m/s] | mass density ([1]; 308.15 K) [kg/m3] | speed of sound ([1]; 313.15 K) [m/s] | mass density ([1]; 313.15 K) [kg/m3] | speed of sound ([1]; 318.15 K) [m/s] | mass density ([1]; 318.15 K) [kg/m3] | speed of sound ([1]; 323.15 K) [m/s] | mass density ([1]; 323.15 K) [kg/m3] | speed of sound ([2]; 298.15 K) [m/s] | mass density ([2]; 298.15 K) [kg/m3] | speed of sound ([2]; 303.15 K) [m/s] | mass density ([2]; 303.15 K) [kg/m3] | speed of sound ([2]; 308.15 K) [m/s] | mass density ([2]; 308.15 K) [kg/m3] | further results
1 | CC(C)(N)CO [2-amino-2-methylpropan-1-ol] | 1501.4 ± 5 | 936.751 ± 4.8 | 1483.4 ± 5 | 932.596 ± 4.7 | 1461.2 ± 5 | 928.395 ± 4.7 | 1442.4 ± 5 | 924.174 ± 4.6 | 1423.8 ± 5 | 919.945 ± 4.6 | 1405.3 ± 5 | 915.702 ± 4.6 | 1386.9 ± 5 | 911.431 ± 4.5 |  |  |  |  |  |  | 
2 | NCCO [2-aminoethan-1-ol] | 1735.5 ± 1.3 | 1015.98 ± 0.24 | 1719.2 ± 1.3 | 1012.02 ± 0.24 | 1703.1 ± 1.3 | 1008 ± 0.24 | 1686.8 ± 1.3 | 1004.02 ± 0.23 | 1670.5 ± 1.3 | 1000.04 ± 0.23 | 1654.2 ± 1.3 | 996.029 ± 0.23 | 1637.9 ± 1.3 | 992.014 ± 0.23 |  |  |  |  |  |  | 
3 | NCCO [2-aminoethan-1-ol] + CC(C)(N)CO |  |  |  |  |  |  |  |  |  |  |  |  |  |  | 1719.2 ± 1.3 | 1012.02 ± 0.24 | 1703.1 ± 1.3 | 1008 ± 0.24 | 1686.8 ± 1.3 | 1004.02 ± 0.23 | speed of sound ([2]; 293.15 K): 1735.5 ± 1.3 m/s; mass density ([2]; 293.15 K): 1015.98 ± 0.24 kg/m3; speed of sound ([2]; 313.15 K): 1670.5 ± 1.3 m/s; mass density ([2]; 313.15 K): 1000.04 ± 0.23 kg/m3; speed of sound ([2]; 318.15 K): 1654.2 ± 1.3 m/s; mass density ([2]; 318.15 K): 996.029 ± 0.23 kg/m3; speed of sound ([2]; 323.15 K): 1637.9 ± 1.3 m/s; mass density ([2]; 323.15 K): 992.014 ± 0.23 kg/m3
4 | NCCO [2-aminoethan-1-ol] + CN(CCO)CCO |  |  |  |  |  |  |  |  |  |  |  |  |  |  | 1719.2 ± 1.3 | 1012.02 ± 0.24 | 1703.1 ± 1.3 | 1008 ± 0.24 | 1686.8 ± 1.3 | 1004.02 ± 0.23 | speed of sound ([2]; 293.15 K): 1735.5 ± 1.3 m/s; mass density ([2]; 293.15 K): 1015.98 ± 0.24 kg/m3; speed of sound ([2]; 313.15 K): 1670.5 ± 1.3 m/s; mass density ([2]; 313.15 K): 1000.04 ± 0.23 kg/m3; speed of sound ([2]; 318.15 K): 1654.2 ± 1.3 m/s; mass density ([2]; 318.15 K): 996.029 ± 0.23 kg/m3; speed of sound ([2]; 323.15 K): 1637.9 ± 1.3 m/s; mass density ([2]; 323.15 K): 992.014 ± 0.23 kg/m3
5 | NCCO [2-aminoethan-1-ol] + OCCN(CCO)CCO |  |  |  |  |  |  |  |  |  |  |  |  |  |  | 1719.2 ± 1.3 | 1012.02 ± 0.24 | 1703.1 ± 1.3 | 1008 ± 0.24 | 1686.8 ± 1.3 | 1004.02 ± 0.23 | speed of sound ([2]; 313.15 K): 1670.5 ± 1.3 m/s; mass density ([2]; 313.15 K): 1000.04 ± 0.23 kg/m3; speed of sound ([2]; 318.15 K): 1654.2 ± 1.3 m/s; mass density ([2]; 318.15 K): 996.029 ± 0.23 kg/m3; speed of sound ([2]; 323.15 K): 1637.9 ± 1.3 m/s; mass density ([2]; 323.15 K): 992.014 ± 0.23 kg/m3
6 | CN(CCO)CCO [N-methyldiethanolamine] | 1585.5 ± 2.1 | 1042.2 ± 0.92 | 1570.1 ± 2.1 | 1038.29 ± 0.92 | 1554.8 ± 2.1 | 1034.36 ± 0.91 | 1539.5 ± 2.1 | 1030.43 ± 0.9 | 1524.2 ± 2.1 | 1026.48 ± 0.89 | 1508.8 ± 2.1 | 1022.53 ± 0.88 | 1493.4 ± 2.1 | 1018.58 ± 0.88 |  |  |  |  |  |  | 
7 | OCCN(CCO)CCO [triethanolamine] |  |  | 1610.5 ± 1.3 | 1120.82 ± 0.33 | 1600.5 ± 1.3 | 1118.06 ± 0.32 | 1595.5 ± 1.3 | 1115.26 ± 0.32 | 1587 ± 1.3 | 1112.4 ± 0.32 | 1578.8 ± 1.3 | 1109.6 ± 0.32 | 1570.6 ± 1.3 | 1106.78 ± 0.32 |  |  |  |  |  |  | 
